Earlier results on ten compounds are cited in US10149395B2, “Water-based organic solderability preservative, and electronic board and surface treatment method using the same” (TAMURA CORPORATION, priority 2016, dated 2018).

For the data set the following is noted: at 20 degrees C.
In the case of `COC(C)COC(C)COC(C)CO` (stereo not shown) [Organic solvent A, tripropylene glycol monomethyl ether], the solubility to water entry is “miscible in all proportions”.
`COCC(C)O` (stereo not shown) [Organic solvent C, propylene glycol monomethyl ether]: the solubility to water result is recorded as “miscible in all proportions”.
For the compound `COCCOCCOCCOCCOC` [Organic solvent D, tetraethylene glycol dimethyl ether], the solubility to water result is “miscible in all proportions”.
Take `OCC1CCCO1` (stereo not shown) [Organic solvent E, tetrahydrofurfuryl alcohol]: the solubility to water entry is on record as “miscible in all proportions”.
On to `COCC(C)OC(C)=O` (stereo not shown) [Organic solvent F, propylene glycol monomethyl ether acetate], for which the solubility to water is 18.5 g/100 g.
For the compound `OCCOc1ccccc1` [Organic solvent G, phenyl glycol], the solubility to water is on record as 2.7 g/100 g.
Take `CCCCOCC(C)OCC(C)OCC(C)O` (stereo not shown) [Organic solvent H, butylpropylene triglycol]: the solubility to water is recorded as 0.4 g/100 g.
On to `CCCCOCCOCCOCCCC` [Organic solvent I, diethylene glycol dibutylether], for which the solubility to water was 0.3 g/100 g.
For the compound `CCO` [Organic solvent J, ethyl alcohol], the solubility to water entry is listed as “miscible in all proportions”.
For `CC(C)O` [Organic solvent K, isopropyl alcohol], the solubility to water result is reported as “miscible in all proportions”.
